Experimental data published in patent publication EP0214101A2, “Use of iron(III) chelators of the type desferrioxamine-B and desferriferrithiocine in the treatment of malaria” (CIBA-GEIGY AG, priority 1985, dated 1987).
Like-named read-outs stand apart in the source and are kept apart here.

Tests used:
[1] = tested on: Plasmodium falciparum T96 Chloroquinresistente Zellinie B; test: microbe, parasite or virus in culture; type: cell-based; details: for IC50: Plasmodium falciparum, Erythrocyte, over 2 cycles
Excerpt: (§1) • a) Durch konventionelles Züchten des Stammes Plasmodium falciparum T96 in einer 2 % (V/V) Suspension von humanen Erythrozyten wird der Grundorganismus-Zellinie A fortgepflanzt, welche eine normale Empfindlichkeit gegenüber Chloroquin aufweist. • b) Zellinie A des obigen Stammes wird unter analogen Standardbedingungen wie unter a) gezüchtet, jedoch mit Zusatz von immer ansteigenden Konzentrationen von Chloroquin, bis eine Chloroquinresistente Zellinie B resultiert, welche weiterhin in Kulturmedien mit einer 500 nM-Konzentration von Chloroquin andauernd normales Wachstum (dieselbe Wachstumsraten wie Zellinie A) aufweist.
(§2) • I. Die Züchtung von Testorganismen erfolgt unter den für Züchtung von Plasmodien üblichen Bedingungen auf einer 2 % Suspension von humanen Erythrozyten, supplementiert mit 50 mg/1 Hypoxanthin und gegebenenfalls unter Zugabe der getesteten Hemmsubstanz in gewünschter Konzentration. Die initiale Parasitämie (= der prozentuelle Anteil der zu Beginn von Plasmodien infizierten Erythrozyten) beträgt 1-2 %. Das Resultat (Hemmwirkung) wird als IC50 ausgewertet, d.h. jene Konzentration des Wirkstoffes, die eine Senkung der finalen Parasitämie um 50 %, d.h. eine 50%ige Hemmung des Wachstums, verursacht. • II. In einer alternativen Versuchsanordnung wird beim Einhalten aller übrigen Bedingungen ohne Zugabe von Hypoxanthin und mit einer initialen Parasitämie von 0,5 % gearbeitet.

Bakterien = details: cited from earlier work
[2] = tested on: Plasmodium falciparum in Kultur an menschlichen Erythrozyten; details: in vitro culture; cited from earlier work
P. vinckei = details: cited from earlier work
[3] = tested on: Plasmodium falciparum T96 Zellinie A; test: Growth inhibition of Plasmodium falciparum T96 cell line A (normal chloroquine sensitivity) in culture on human erythrocytes; type: cell-based; details: Erythrocyte, over 2 cycles
Excerpt: as §1
as §2, with “In einer alternativen Versuchsanordnung wird beim Einhalten aller übrigen Bedingungen ohne Zugabe von Hypoxanthin und mit einer initialen Parasitämie von 0,5 % gearbeitet.” left out

[4] = very high doses; cited from earlier work

Row | SMILES | Vermehrungsfaktor ([1]; Versuchsanordnung I with 500 nM Chloroquin, within 48 hours) | antibakterielle Wirksamkeit in vitro (Bakterien) | Wachstum / Abtötung in vitro [2] | Wachstum des Parasiten (P. vinckei; 0,2 g/kg) | Wachstum des Parasiten (P. vinckei; 1,0 g/kg) | IC50 ([3]; Versuchsanordnung I) [µM] | IC50 ([3]; Versuchsanordnung II) [µM] | IC50 ([1]; Versuchsanordnung I, with 400 nM Chloroquin added) [µM] | IC50 ([1]; Versuchsanordnung I, without Chloroquin in test medium) [µM] | IC50 ([1]; Versuchsanordnung II, without Chloroquin in test medium) [µM] | Wirksamkeit gegen Chloroquin-resistenten Stamm im Vergleich zu normal empfindlichem Stamm ([1]; comparison of resistant with sensitive strain grown under the same conditions) | Toxikologie [4]
1 | CCN(CC)CCCC(C)Nc1ccnc2cc(Cl)ccc12 (stereo not drawn) [Chloroquin, 7-Chlor-4-(4-diethylamino-l-methylbutylamino)chinolin] | 7-9 | – | – | – | – | – | – | – | – | – | – | –
2 | CC1(C(=O)O)CSC(c2ncccc2O)=N1 (stereo not shown) [Desferri-ferrithiocin, 2-(3-Hydroxy-2-pyridyl)-4-methyl-2-thiazolin-4-carbonsäure] | – | gewisse allgemeine antibakterielle Wirksamkeit in vitro | – | – | – | – | – | – | – | – | – | –
3 | CC(=O)N(O)CCCCCNC(=O)CCC(=O)N(O)CCCCCNC(=O)CCC(=O)N(O)CCCCCN [Desferrioxamin B, 6,17,28-Trihydroxy-7,10,18,21,29-pentaoxo-6,11,17,22,28-pentaaza-triacontanylamin] | – | gewisse allgemeine antibakterielle Wirksamkeit in vitro | nicht nur in ihrem Wachstum gehemmt, sondern auch getötet | das Wachstum des Parasiten deutlich hemmt | ihn vollständig tötet | 17 ± 3 | 5 | 3 ± 1 | 6 ± 1.5 | 2 ± 1 | um fast eine Grössenordnung wirksamer | auch in sehr hohen Dosen toxikologisch einwandfrei
